According to article PMC4014698 (Pharmaceuticals, 2014):
Non-standard residues stand in square brackets, D forms with d. Residues, ends and D or L forms follow the SMILES beside them.

Assays:
human erythrocytes [1] = experiment: Hemolytic activity (HC50); format: cell-based; conditions: 1 hour incubation at 37 °C; human red blood cells; Figure 8, 100% control 0.1% Triton-X 100
human erythrocytes [2] = experiment: Hemolytic activity (HC50); format: cell-based; conditions: 18 hours at 37 °C; human red blood cells; Figure 8, 100% control 0.1% Triton-X 100
Procedure: Hemoglobin release was determined spectrophotometrically at 570 nm.
From these plots, the HC50 values, the peptide concentration that produces 50% hemolysis of human red blood cells after 18 hours in the standard microtiter dilution method was determined.

CC[C@@H](C)[C@@H](NC(=O)[C@H]1CCCN1C(=O)[C@@H](CCCNC(=N)N)NC(=O)[C@@H](Cc1ccccc1)NC(=O)[C@H](NC(=O)[C@@H](Cc1c[nH]cn1)NC(=O)[C@@H](Cc1c[nH]cn1)NC(=O)[C@@H](Cc1ccccc1)NC(=O)[C@H](N)Cc1ccccc1)[C@H](C)CC)C(=O)N[C@@H](C(=O)N[C@H](Cc1c[nH]cn1)C(=O)N[C@@H](C(=O)NCC(=O)N[C@H](CCCCN)C(=O)N[C@@H](C(=O)N[C@@H](C(=O)N[C@H](Cc1c[nH]cn1)C(=O)N[C@H](CCCNC(=N)N)C(=O)N[C@H](CC(C)C)C(=O)N[C@@H](C(=O)N[C@@H](C(=O)NCC(N)=O)[C@H](C)O)C(C)C)[C@H](C)CC)[C@H](C)O)C(C)C)C(C)C [D-Piscidin 1 G8P] (H-[dF][dF][dH][dH][dI][dF][dR][dP][dI][dV][dH][dV]G[dK][dT][dI][dH][dR][dL][dV][dT]G-NH2)
Hemolytic activity HC50, 1 hour (human erythrocytes [1]): 55 µM | Hemolytic activity HC50, 18 hours (Figure 8 comparison) (human erythrocytes [2]): 8 µM
